Active and inactive are the calls of the source. No rule for the calls is given here.
Target: RanGTP-importin-beta complex (human Ran / KPNB1)
Experiment: Ran–importin-beta interaction inhibitors, confirmation, biochemical, FRET, CFP/YFP, cell-free homogeneous (AID 2823)
Details: CFP-Ran/YFP-importin-beta FRET ratio

| Structure (SMILES) | IC50 |
| --- | --- |
| N#C/C(=C/c1ccc(N2CCOCC2)o1)C(=O)N1CCOCC1 | 4.46 µM |
| CC1CCCCN1C(=O)Cn1c(=O)oc2cc(S(=O)(=O)N3CCCC3)ccc21 (stereo not drawn) | > 50 µM (inactive) |
| O=C(COC(=O)c1ccc2ccccc2c1)NCCCc1ccccc1 | > 50 µM (inactive) |
| COC(=O)c1c(NC(NC(=O)c2ccccc2)(C(F)(F)F)C(F)(F)F)sc2c1CCN(C)C2 | 35.8 µM |
| CC1=Nc2ccccc2/C1=C\c1sc(Nc2ccc(C)cc2)nc1O | > 50 µM (inactive) |
| Cc1ccc(OCC(=O)N2CCCCCC2)c(C)c1 | > 50 µM (inactive) |
| COCCN1C=C(C(=O)OC)C(c2ccc(Cl)cc2)C(C(=O)OC)=C1 | 9.78 µM |
| COC(=O)c1cc2c(ccn2C)n1C | > 50 µM (inactive) |
| O=C(O)c1c2c(nc3ccccc13)/C(=C/c1ccc(OC(F)F)cc1)CCC2 | > 50 µM (inactive) |
| Cc1cc(C)c(C#N)c(Nc2ccccc2C)n1 | > 50 µM (inactive) |
| O=[N+]([O-])c1ccc(Nc2c3ccccc3nc3ccccc23)cc1 | > 50 µM (inactive) |
| COCCNC(=O)c1cnn2c(C(F)F)cc(-c3ccc(C)cc3)nc12 | 37.8 µM |
| CNc1cc(F)nc(F)n1 | 18.4 µM |
| Cc1ccc(/C=C/C(=O)Nc2cccc3ncccc23)o1 | > 50 µM (inactive) |
| Cc1ccc2nc(N3CCN(C(=O)c4cccs4)CC3)c(C#N)cc2c1 | 17.7 µM |
| COc1cc(OC)cc(-c2cc3nc(C)cc(N4CCN(C(=O)c5ccco5)CC4)n3n2)c1 | 4.91 µM |
| C/C(=N\OCC(=O)OCC(=O)NC(=O)c1ccccc1)c1ccc2c(c1)OCO2 | > 50 µM (inactive) |
| CCc1ccccc1N(CC(=O)NCc1ccco1)C(=O)CCC(=O)Nc1nccs1 | > 50 µM (inactive) |
| Cc1ccc(N2CC(=O)N(NC(=O)c3sc4nc(C)cc(C)c4c3N)CC2=O)cc1 | > 50 µM (inactive) |
| O=[N+]([O-])c1cccc(-c2n[nH]c(=S)n2-c2ccc(Br)cc2)c1 | > 50 µM (inactive) |
| COCc1cc(CN2CCN(C)CC2)c(O)c2ncccc12 | > 50 µM (inactive) |
| Cc1cc(C2C(C#N)=C(N)SC(N)=C2C#N)c(C)s1 | > 50 µM (inactive) |
| COc1ccc(C(=O)N/N=C/c2c(CO)cnc(C)c2O)cc1 | 3.13 µM |
| O=C(NNc1c2ccccc2nc2ccccc12)C12CC3CC(CC(C3)C1)C2 | > 50 µM (inactive) |
| CCOC(=O)C1(CC2CCCCO2)CCN(C(=O)Nc2ccc3c(c2)OCO3)CC1 (stereo not drawn) | > 50 µM (inactive) |

| Structure (SMILES) | IC50 |
| --- | --- |
| Cc1nn(C(=O)c2ccco2)c(C)c1CN1C(=O)c2ccccc2C1=O | > 50 µM (inactive) |
| Cc1cccc(/C=N/c2sc3c(c2C#N)CCN(Cc2ccccc2)C3)c1O | > 50 µM (inactive) |
| CC(=O)c1ccc(-c2ccc(Cn3c(C)nc4cc(N)c(C)nc43)cc2)cc1 | > 50 µM (inactive) |
| Cc1cnc(=O)[nH]c1SCC(=O)c1ccc(F)cc1 | > 50 µM (inactive) |
| CCN1/C(=C2\SC(=S)N(Cc3ccccc3)C2=O)Sc2ccccc21 | > 50 µM (inactive) |
| Cc1cc(NC(=O)c2sc3ccccc3c2O)no1 | 26.3 µM |
| O=c1cc(N2CCC(Cc3ccccc3)CC2)[nH]c(=O)n1C1CCCCC1 | > 50 µM (inactive) |
| CCc1ccc(CNc2ccc3c(c2)ncn3C(C)(C)C)cc1 | > 50 µM (inactive) |
| COc1ccc(C(=O)Nc2ccc(S(=O)(=O)Nc3onc(C)c3C)cc2)cc1 | > 50 µM (inactive) |
| NC(=O)CN(Cc1ccccc1)S(=O)(=O)c1ccc2c(c1)OCCO2 | > 50 µM (inactive) |
| Clc1ccc(/C=C\c2nccc3c2[nH]c2ccccc23)cc1 | > 50 µM (inactive) |
| O=C(c1ccco1)N1CCN(c2cc(=O)n(-c3ccc(Cl)cc3)c(=O)[nH]2)CC1 | > 50 µM (inactive) |
| Cn1c(=O)oc2cc(S(=O)(=O)NCCC(=O)N3CC=C(c4ccccc4)CC3)ccc21 | > 50 µM (inactive) |
| CCOC(=O)c1c(N)n(CCN2CCCCC2)c2nc3ccccc3nc12 | 32.3 µM |
| COC(=O)C1=CN(Cc2ccc(OC)cc2)C=C(C(=O)OC)C1c1ccc(O)c(OC)c1 | > 50 µM (inactive) |
| O=c1cc(N2CCc3ccccc3C2)[nH]c(=O)n1C1CCCCC1 | > 50 µM (inactive) |
| COc1cc(-c2nc3cnccn3c2Nc2ccc(C(C)C)cc2)ccc1O | > 50 µM (inactive) |
| CCC(=O)N(C)/C=C1\Sc2ccccc2C1=O | > 50 µM (inactive) |
| O=C1NC(c2cccc([N+](=O)[O-])c2)Oc2ccccc21 (stereo not drawn) | > 50 µM (inactive) |
| Cc1cccc2cc(C#N)c(NCCNC(=S)NCCCN3CCOCC3)nc12 | 39.6 µM |
| COc1ccc(CCNC(=O)c2cc3c(=O)n4ccccc4nc3n(CCCN3CCOCC3)c2=N)cc1 | 17.9 µM |
| COC(=O)C1=CN(Cc2ccc(OC)c(OC)c2)C=C(C(=O)OC)C1c1ccccc1F | 9.77 µM |
| CCCCc1cc(=O)oc2c(C)c(OCC(=O)NCc3ccccn3)ccc12 | > 50 µM (inactive) |
| CC(=O)N1CCC(N(CCN2CCOCC2)C(=O)Nc2ccc(Cl)c(Cl)c2)CC1 | > 50 µM (inactive) |
| O=C1C(=O)N(CCS(=O)(=O)c2ccccc2)c2ccc(Cl)cc21 | > 50 µM (inactive) |

| Structure (SMILES) | IC50 |
| --- | --- |
| Cc1sc2nc(SCC(=O)NCc3ccco3)n(-c3ccccc3)c(=O)c2c1C | > 50 µM (inactive) |
| N=c1c(S(=O)(=O)c2ccc(Cl)cc2)cc2c(=O)n3ccccc3nc2n1Cc1cccnc1 | > 50 µM (inactive) |
| COc1ccc(Cn2c(=N)c(C(=O)NC3CCCCC3)cc3c(=O)n4ccccc4nc32)cc1 | 47.7 µM |
| O=C(Nc1nonc1NC(=O)c1cccs1)c1cccs1 | > 50 µM (inactive) |
| N#CC1=C(N)SC(N)=C(C#N)C1c1cccc(O)c1 | > 50 µM (inactive) |
| O=C(CSCC(=O)NC1CC1)Nc1ccccc1 | > 50 µM (inactive) |
| Cc1ccc(/C=C2/C(=O)c3ccc(C(=O)O)cc3C2=O)o1 | > 50 µM (inactive) |
| COc1cc(NC(=O)c2cc(-c3cccs3)on2)cc(OC)c1OC | > 50 µM (inactive) |
| CCC(C)c1ccc(OCC(=O)O)cc1 (stereo not drawn) | > 50 µM (inactive) |
| CCOC(=O)/C(C#N)=C1/C=Nc2ccccc2N1 | > 50 µM (inactive) |
| CN1CCN(C(=O)c2ccccc2Nc2ccc(SC(F)F)cc2)CC1 | > 50 µM (inactive) |
| CC(C)NC(=O)/C(C#N)=C/c1ccc(N(C)C)o1 | 6.07 µM |
| CCOC(=O)c1c(/N=C/c2ccc(C)cc2O)sc2c1CCN(C)C2 | > 50 µM (inactive) |
| Cc1cccc(Nc2nnc(SC/C(O)=C(\C#N)c3nc4ccccc4[nH]3)s2)c1C | > 50 µM (inactive) |
| Nc1nc(CSc2nc3ccccc3s2)nc(N2CCCCC2)n1 | > 50 µM (inactive) |
| Cc1oc2cc(O)ccc2c(=O)c1-c1nncn1-c1ccccc1 | 32.3 µM |
| Cc1cccc(-n2c(C)cc(/C=C3\C(=N)N4N=C(CC(C)C)SC4=NC3=O)c2C)c1 | 10.6 µM |
| N#C/C(=C(/O)CSc1ccccn1)c1nc2ccccc2s1 | > 50 µM (inactive) |
| CSc1ncccc1C(=O)OCC(=O)c1cc2ccccc2o1 | > 50 µM (inactive) |
| Cc1sc2c(c1C)C(=O)NC(c1ccccc1F)N2 (stereo not drawn) | > 50 µM (inactive) |
| Cc1cccc(-c2nnc(NC(=O)c3ccc(N4C(=O)CCC4=O)cc3)s2)c1 | > 50 µM (inactive) |
| CC(C)n1c(O)c(C2c3cc(Cl)ccc3Oc3[nH]c(=O)n(C(C)C)c(=O)c32)c(=O)[nH]c1=O (stereo not drawn) | > 50 µM (inactive) |
| Cc1ccc(-n2c(=O)c(C#N)cc3c(=O)n4ccccc4nc32)cc1C | > 50 µM (inactive) |

Source: PubChem BioAssay AID2823 (Broad Institute, 2010)
